The text below walks through data of paper PMC4471902, “Block of NMDA receptor channels by endogenous neurosteroids: implications for the agonist induced conformational states of the channel vestibule” (Scientific Reports, 2015).

For this experiment, the target named is T1, GluN1ΔN/GluN2BΔN (Rattus norvegicus, UniProt P35439+Q00960, DEL32-386).
T1 construct: expressed in transfected cells; host or cells: HEK293
Put plainly: Whole-cell patch-clamp of N-terminal truncated NMDARs in HEK293 cells. The conditions noted are these: 1 mM glutamate, PA-S 50 µM. The experiment is classed as cell-based. From the text: Human embryonic kidney (HEK293) cells were transfected with expression vectors containing: GluN1–1a (GenBank accession number U08261)[52]; GluN2B (GenBank accession number M91562); GluN1-4a(F484A), (generous gift from Dr. J. J. Woodward)[53] (Smothers & Woodward, 2009); GluN3A (generous gift from Dr. S. A. Lipton)[54] (GenBank accession number NM_138546); GluN1ΔN with deleted 354 amino acids in the NTD (32 to 386); GluN1ΔC with an introduced stop codon in 838 of the CTD GluN2BΔN) with deleted 354 amino acids in the NTD (32 to 386); GluN2BΔC with an introduced stop codon in 844 of the CTD[55]; GluR0 (GenBank accession number Synechocystis PCC 6803) (generous gift from Dr. M. L. Mayer)[18]; and green fluorescent protein (GFP) (pQBI 25, Takara, Tokyo, Japan) genes, as described previously. The Quick-Change site-directed mutagenesis kit (Agilent Technologies, Santa Clara, CA, USA) was used to generate specific point mutations in the M1/M3 region according to the manufacturer’s instructions using manually designed primers purchased from Sigma. Modified DNA plasmids were transformed into competent XL10-Gold E.coli cells, positive clones were selected, and isolated DNA was sequenced. […]
The IC50 was determined from a single dose of a steroid using the formula [drawing 1] where I is the relative degree of inhibition and [steroid] is the steroid concentration used. […]

Structures can show the parent of a compound that is named as a salt.

T1 sequence (P35439 with tags, fused parts or gaps DEL32-386): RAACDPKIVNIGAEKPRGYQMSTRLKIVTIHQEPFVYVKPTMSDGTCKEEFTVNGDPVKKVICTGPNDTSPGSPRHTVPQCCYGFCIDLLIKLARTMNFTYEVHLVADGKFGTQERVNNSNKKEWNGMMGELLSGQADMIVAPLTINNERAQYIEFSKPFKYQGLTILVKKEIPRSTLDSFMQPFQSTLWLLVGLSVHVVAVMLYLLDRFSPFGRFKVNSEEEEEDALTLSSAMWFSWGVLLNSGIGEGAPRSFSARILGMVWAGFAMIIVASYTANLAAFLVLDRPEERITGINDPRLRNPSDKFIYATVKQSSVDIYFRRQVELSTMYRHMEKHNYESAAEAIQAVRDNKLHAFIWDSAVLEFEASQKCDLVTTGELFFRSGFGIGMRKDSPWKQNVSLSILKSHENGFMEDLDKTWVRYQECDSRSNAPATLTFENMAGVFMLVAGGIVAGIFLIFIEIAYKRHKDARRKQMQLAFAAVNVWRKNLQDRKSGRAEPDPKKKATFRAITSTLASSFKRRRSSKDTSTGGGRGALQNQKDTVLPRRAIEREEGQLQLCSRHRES
T1 sequence (Q00960 with tags, fused parts or gaps DEL32-386): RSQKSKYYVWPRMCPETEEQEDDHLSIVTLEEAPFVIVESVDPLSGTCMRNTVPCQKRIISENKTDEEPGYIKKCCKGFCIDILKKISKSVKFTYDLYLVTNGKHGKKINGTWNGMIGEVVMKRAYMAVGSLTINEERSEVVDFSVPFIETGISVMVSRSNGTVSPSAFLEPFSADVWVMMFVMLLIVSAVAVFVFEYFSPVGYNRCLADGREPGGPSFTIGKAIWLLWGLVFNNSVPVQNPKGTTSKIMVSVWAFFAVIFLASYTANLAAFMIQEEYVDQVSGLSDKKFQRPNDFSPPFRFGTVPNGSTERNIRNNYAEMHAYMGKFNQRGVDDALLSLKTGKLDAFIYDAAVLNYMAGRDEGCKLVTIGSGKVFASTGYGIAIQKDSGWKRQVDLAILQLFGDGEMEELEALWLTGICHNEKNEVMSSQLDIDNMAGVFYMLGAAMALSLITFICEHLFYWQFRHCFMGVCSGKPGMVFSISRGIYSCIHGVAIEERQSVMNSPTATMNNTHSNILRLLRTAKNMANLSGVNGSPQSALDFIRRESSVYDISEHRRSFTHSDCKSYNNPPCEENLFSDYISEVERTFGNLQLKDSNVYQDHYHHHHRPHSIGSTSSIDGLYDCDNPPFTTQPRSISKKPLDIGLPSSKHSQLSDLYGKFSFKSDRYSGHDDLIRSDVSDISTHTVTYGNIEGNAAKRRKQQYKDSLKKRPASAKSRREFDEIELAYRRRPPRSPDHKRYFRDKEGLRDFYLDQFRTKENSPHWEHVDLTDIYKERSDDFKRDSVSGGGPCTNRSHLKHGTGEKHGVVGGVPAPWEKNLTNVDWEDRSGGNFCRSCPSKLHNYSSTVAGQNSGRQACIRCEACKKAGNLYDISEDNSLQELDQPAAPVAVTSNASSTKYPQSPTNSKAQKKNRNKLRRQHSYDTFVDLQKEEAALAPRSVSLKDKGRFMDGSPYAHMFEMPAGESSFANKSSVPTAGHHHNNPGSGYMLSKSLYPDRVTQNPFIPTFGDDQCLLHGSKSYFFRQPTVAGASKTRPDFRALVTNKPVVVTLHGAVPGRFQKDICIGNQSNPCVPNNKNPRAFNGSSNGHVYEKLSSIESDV

Consider `CC(=O)[C@H]1CC[C@H]2[C@@H]3CC[C@@H]4C[C@H](OS(=O)(=O)O)CC[C@]4(C)[C@H]3CC[C@]12C` [PA-S, 20-oxo-5β-pregnan-3α-yl sulfate], for which 41 ± 2 µM corresponded to half-maximal inhibition (IC50).
